pIC50: −log10 of the molar value.
Legend:
[1] = test system: HAP1 MTAP-deleted cell line; assay: SDMA in-cell western assay, HAP1 MTAP-deleted; format: cell-based; settings: for pIC50: Homo sapiens, HAP1, SDMA in-cell western, HAP1 MTAP-deleted; for MTAP intact/deleted ratio: SDMA in-cell western
How it was run: (§1)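 Compounds were tested in HAP1 cells differing only in MTAP status (endogenous expression versus null). Cellular SDMA levels were then measured by in-cell western, giving an IC50 in each background.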

[2] = test system: HAP1 MTAP-deleted cell line; assay: Viability assay, MTAP-deleted cell line; format: cell-based; settings: Homo sapiens, read-out: HAP1 MTAP deleted viability
Text: Table 1 additionally indicates IC50 values in a viability assay for the MTAP-deleted cell line (column 10), indicating the effect of treatment with compound on cell survival.

[3] = test system: HAP1 MTAP-intact cell line; assay: SDMA in-cell western assay, HAP1 MTAP-intact; format: cell-based; settings: Homo sapiens, HAP1, SDMA in-cell western, HAP1 MTAP-intact; read-out: MTAP HAP1 intact IC50
How it was run: as §1

PRMT5 [4] = biological target: T1, PRMT5 (Homo sapiens, UniProt O14744); assay: PRMT5 biochemical IC50 assay with SAM as cofactor; settings: PRMT5, SAM as cofactor; read-out: SAM IC50
T1 construct: purchased Viva (custom protein)

PRMT5 [5] = biological target: T1, PRMT5; assay: PRMT5 biochemical IC50 assay with MTA as cofactor; settings: PRMT5, MTA as cofactor; read-out: MTA IC50
PRMT5 [6] = biological target: T1, PRMT5; assay: PRMT5 biochemical IC50 assay with no cofactor; settings: PRMT5, no cofactor
Text: Table 1 indicates IC50 values (μM) against PRMT5 for exemplary compounds in the presence of SAM as cofactor, with no cofactor, and with MTA as cofactor, respectively (columns 4-6). […] Ki values can be calculated from the IC50 values as described in the Examples section. As detailed in the Examples section, for the assay performed in the presence of SAM, IC50=Ki×1.5 (Ki=IC50/1.5).

[7] = read-out: HAP 1 MTAP deleted IC50
[8] = IC50 ratio HAP1 MTAP-intact / HAP1 MTAP-deleted
[9] = HAP1, viability IC50, MTAP-deleted cell line
[10] = read-out: HAP1 MTAP deleted IC50
[11] = HAP1, viability assay, HAP1 MTAP-deleted
[12] = HAP1, viability assay, MTAP-deleted cell line
[13] = IC50 ratio HAP1 MTAP-intact vs HAP1 MTAP-deleted
[14] = read-out: No Cofactor/ rel IC50

T1 sequence (O14744 whole entry): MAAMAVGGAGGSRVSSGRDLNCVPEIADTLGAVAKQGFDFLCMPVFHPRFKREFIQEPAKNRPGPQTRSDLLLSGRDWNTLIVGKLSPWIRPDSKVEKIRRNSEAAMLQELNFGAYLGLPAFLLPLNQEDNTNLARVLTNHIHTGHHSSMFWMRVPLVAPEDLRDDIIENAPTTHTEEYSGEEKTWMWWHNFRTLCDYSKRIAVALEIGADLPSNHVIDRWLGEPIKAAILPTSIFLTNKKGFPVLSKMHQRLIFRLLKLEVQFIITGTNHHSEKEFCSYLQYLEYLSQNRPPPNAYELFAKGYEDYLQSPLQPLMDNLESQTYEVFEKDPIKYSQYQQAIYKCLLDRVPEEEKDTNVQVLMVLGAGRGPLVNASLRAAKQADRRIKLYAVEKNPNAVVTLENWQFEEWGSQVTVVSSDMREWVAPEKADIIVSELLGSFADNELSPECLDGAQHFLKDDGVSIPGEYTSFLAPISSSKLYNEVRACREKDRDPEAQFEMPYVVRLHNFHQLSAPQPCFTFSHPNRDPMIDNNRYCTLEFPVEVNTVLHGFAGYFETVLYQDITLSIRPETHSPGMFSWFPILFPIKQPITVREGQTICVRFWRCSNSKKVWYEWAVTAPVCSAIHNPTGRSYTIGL
T1 sequence (Q9BQA1 whole entry partner): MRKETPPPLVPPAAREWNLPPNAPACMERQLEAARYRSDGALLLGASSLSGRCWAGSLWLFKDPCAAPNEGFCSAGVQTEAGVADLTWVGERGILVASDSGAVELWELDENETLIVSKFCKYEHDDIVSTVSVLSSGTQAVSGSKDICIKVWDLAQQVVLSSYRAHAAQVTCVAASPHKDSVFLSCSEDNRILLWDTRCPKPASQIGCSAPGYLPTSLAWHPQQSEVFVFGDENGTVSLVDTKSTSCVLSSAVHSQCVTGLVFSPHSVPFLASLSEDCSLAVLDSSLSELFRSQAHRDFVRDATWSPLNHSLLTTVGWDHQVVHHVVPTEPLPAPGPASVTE

Row | SMILES | pIC50 [1, 7] | MTAP intact/deleted ratio [1, 8] | pIC50 [2, 9] | pIC50 [3] | pIC50 (PRMT5 [4]) | pIC50 (PRMT5 [5]) | pIC50 (PRMT5 [6]; read-out: No Cofactor/rel IC50) | pIC50 [1, 10] | pIC50 [2, 11] | pIC50 [2, 12] | MTAP intact/deleted ratio [1, 13] | pIC50 ([2]; HAP1, viability, HAP1 MTAP-deleted cell line) | pIC50 (PRMT5 [6]; [14])
1 | C[C@@H]1CC[C@@H]([C@H]2CCC[C@H](O)C2)N(C(=O)C(=O)Nc2cncc(C(N)=O)c2)C1 (single isomer, unassigned) [Compound 530] | < 6.00 | C (an IC50 ratio of less than 3 fold) | < 5.00 | < 6.00 | < 6.30 | < 6.30 | < 6.30 |  |  |  |  |  | 
2 | CCc1cc(NC(=O)C(=O)N2C[C@@H](C)C(F)(F)C[C@@H]2c2ccc(F)c(F)c2)cnc1N (single isomer, unassigned) [Compound 721] |  | A (an IC50 ratio greater than or equal to 10 fold) |  | < 6.00 | 6.30 to 7.30 | > 7.30 | > 7.30 | > 7.00 | > 6.00 |  |  |  | 
3 | Cc1c(NC(=O)C(=O)N2C[C@@H](C)CC[C@@H]2c2ccc(O)cc2)cnc(N)c1C (single isomer, unassigned) [Compound 383] |  | A (an IC50 ratio greater than or equal to 10 fold) |  | < 6.00 | 6.30 to 7.30 | > 7.30 | 6.30 to 7.30 | > 7.00 |  | > 6.00 |  |  | 
4 | CCc1cc(NC(=O)C(=O)N2C[C@@H](C)CC[C@@H]2c2cnc3c(c2)CCC(=O)N3)cnc1N (racemic) [Compound 916, rac-N-(6-Amino-5-ethyl-3-pyridyl)-2-[(2S,5R)-5-methyl-2-(7-oxo-6,8-dihydro-5H-1,8-naphthyridin-3-yl)-1-piperidyl]-2-oxo-acetamide] | > 7.00 | A (an IC50 ratio greater than or equal to 10 fold) |  | < 6.00 | < 6.30 | 6.30 to 7.30 | 6.30 to 7.30 |  |  | 5.00 to 6.00 |  |  | 
5 | C[C@H]1CC[C@H](c2ccc3c(c2)OCCN3)N(C(=O)C(=O)Nc2cncc(C(N)=O)c2)C1 (single isomer, unassigned) [Compound 598] | > 7.00 | A (an IC50 ratio greater than or equal to 10 fold) | > 6.00 | < 6.00 | > 7.30 | > 7.30 | 6.30 to 7.30 |  |  |  |  |  | 
6 | CNC(=O)[C@@H]1CC[C@@H](c2ccccc2)N(C(=O)C(=O)Nc2cnc(N)c(C)c2)C1 (racemic) [Compound 249, 1-(2-((6-amino-5-methylpyridin-3-yl)amino)-2-oxoacetyl)-N-methyl-6-phenylpiperidine-3-carboxamide] |  | C (an IC50 ratio of less than 3 fold) |  | < 6.00 | 6.30 to 7.30 | 6.30 to 7.30 | < 6.30 | < 6.00 |  | < 5.00 |  |  | 
7 | C[C@H]1CC[C@H](c2cccc3[nH]ncc23)N(C(=O)C(=O)Nc2cncc(C(N)=O)c2)C1 (single isomer, unassigned) [Compound 897] | > 7.00 | A (an IC50 ratio greater than or equal to 10 fold) |  | < 6.00 | 6.30 to 7.30 | > 7.30 | 6.30 to 7.30 |  |  | 5.00 to 6.00 |  |  | 
8 | CCc1cc(NC(=O)C(=O)N2C[C@@H](C)CC[C@@H]2c2ccc3sc(CCN(C)C4COC4)nc3c2)cnc1N [Compound 1195, N-(6-amino-5-ethylpyridin-3-yl)-2-((2R,5S)-5-methyl-2-(2-(2-(methyl(oxetan-3-yl)amino)ethyl)benzo[d]thiazol-5-yl)piperidin-1-yl)-2-oxoacetamide] |  |  |  | > 7.00 | 6.30 to 7.30 | > 7.30 | > 7.30 | > 7.00 |  | > 6.00 | A (an IC50 ratio greater than or equal to 10 fold) |  | 
9 | Cc1cc(NC(=O)C(=O)N2C[C@@H](C)[C@H](OC(C)C)C[C@@H]2c2ccccc2)cnc1N (single isomer, unassigned) [Compound 1327] | < 6.00 |  |  | < 6.00 | < 6.30 | < 6.30 |  |  |  |  |  | 5.00 to 6.00 | < 6.30
10 | C[C@@]1(F)CC[C@H](c2ccccc2)N(C(=O)C(=O)Nc2cncc(C(N)=O)c2)C1 (single isomer, unassigned) [Compound 795, 5-(2-(5-fluoro-5-methyl-2-phenylpiperidin-1-yl)-2-oxoacetamido)nicotinamide] |  | A (an IC50 ratio greater than or equal to 10 fold) |  | < 6.00 | 6.30 to 7.30 | > 7.30 | 6.30 to 7.30 | > 7.00 | 5.00 to 6.00 |  |  |  | 
11 | C[C@@H]1CC[C@@H](c2cccc3[nH]ncc23)N(C(=O)C(=O)Nc2cncc(C(N)=O)c2)C1 (single isomer, unassigned) [Compound 883] |  | C (an IC50 ratio of less than 3 fold) |  | < 6.00 | < 6.30 | < 6.30 | < 6.30 | < 6.00 | < 5.00 |  |  |  | 
12 | CCc1cc(NC(=O)C(=O)N2CC(C)CCC2c2ccc(N3CCC4C(CCCN4C)C3)cc2)cnc1N (single isomer, unassigned) [Compound 1132] |  |  |  | 6.00 to 7.00 | 6.30 to 7.30 | > 7.30 | > 7.30 | > 7.00 |  | > 6.00 | A (an IC50 ratio greater than or equal to 10 fold) |  | 
13 | Cc1cc(NC(=O)C(=O)N2C[C@@H](C)CC[C@@H]2c2ccc(CO)cc2)cnc1N (single isomer, unassigned) [Compound 806] |  | A (an IC50 ratio greater than or equal to 10 fold) |  | 6.00 to 7.00 | 6.30 to 7.30 | > 7.30 | > 7.30 | > 7.00 | > 6.00 |  |  |  | 
14 | Cc1cc(NC(=O)C(=O)N2C[C@H](C)CC[C@H]2[C@@H]2CCC[C@H](O)C2)cnc1N (single isomer, unassigned) [Compound 567] | < 6.00 | C (an IC50 ratio of less than 3 fold) | < 5.00 | < 6.00 | < 6.30 | < 6.30 | < 6.30 |  |  |  |  |  | 
15 | Cc1cc(NC(=O)C(=O)N2CCCC[C@@H]2c2ccncc2)cnc1N (single isomer, unassigned) [Compound 50] | 6.00 to 7.00 | B (an IC50 ratio greater than or equal to 3 fold but lower than 10 fold) |  | < 6.00 | 6.30 to 7.30 | > 7.30 |  |  |  | < 5.00 |  |  | 6.30 to 7.30
16 | Cc1cncc(NC(=O)C(=O)N2C[C@H](C)CC[C@H]2c2ccc(F)cc2)c1 (racemic) [Compound 89, rac-2-((2R,5S)-2-(4-fluorophenyl)-5-methylpiperidin-1-yl)-N-(5-methylpyridin-3-yl)-2-oxoacetamide] | < 6.00 | C (an IC50 ratio of less than 3 fold) |  | < 6.00 | < 6.30 | 6.30 to 7.30 |  |  |  | < 5.00 |  |  | 6.30 to 7.30
17 | C[C@@H]1CC[C@@H](c2cccc(C(F)(F)F)c2)N(C(=O)C(=O)Nc2cncc(C(N)=O)c2)C1 (single isomer, unassigned) [Compound 510] |  | C (an IC50 ratio of less than 3 fold) |  | < 6.00 | < 6.30 | < 6.30 | < 6.30 | < 6.00 |  | < 5.00 |  |  | 

Reference: patent publication US11999727B2 (Tango Therapeutics, Inc., priority 2020, dated 2024)
